Literature values as cited in Sander's compilation of Henry's law constants (doi:10.1039/p29940001777).

test: Henry solubility constant Hcp at 298.15 K (mol/(m3 Pa)); conditions: reference: Abraham et al. (1994a); cited value

| SMILES | Henry solubility constant Hcp |
| --- | --- |
| N#Cc1ccccc1 [benzenenitrile] | 0.5 |
| COc1cccc(N)c1 [3-methoxy-benzenamine] | 90 |
| Nc1ccccc1Cl [1-amino-2-chlorobenzene] | 1.6 |
| N#Cc1ccncc1 [4-cyanopyridine] | 11 |
| Nc1ccc2ccccc2c1 [2-naphthylamine] | 120 |
| CCc1cccc(O)c1 [1-hydroxy-3-ethylbenzene] | 16 |
| Nc1cccc([N+](=O)[O-])c1 [3-nitrobenzenamine] | 1200 |
| Cc1ccc(C)c(O)c1 [1-hydroxy-2,5-dimethylbenzene] | 8.8 |
| CCOC(=O)c1ccccc1 [ethyl benzoate] | 0.19 |
| Oc1ccccc1Cl [2-hydroxychlorobenzene] | 0.88 |
| Oc1ccccc1I [2-iodophenol] | 14 |
| CC(=O)c1ccc(C)cc1 [4'-methylacetophenone] | 1.1 |
| Cc1cccc(C)c1N [2,6-dimethylbenzenamine] | 2.7 |
| CN1CCCCC1 [N-methylpiperidine] | 0.24 |
| Cc1ccccc1N [2-methylbenzenamine] | 4.6 |
| CC(=O)c1ccncc1 [4-acetylpyridine] | 160 |
| O=Cc1cccnc1 [3-formylpyridine] | 65 |
| Nc1cccc2ccccc12 [1-naphthylamine] | 88 |
| CCOCCO [2-ethoxyethanol] | 33 |
| Cc1ccc(O)c(C)c1 [1-hydroxy-2,4-dimethylbenzene] | 10 |
| CCc1ccc(O)cc1 [1-hydroxy-4-ethylbenzene] | 13 |
| Cc1cccc(O)c1C [1-hydroxy-2,3-dimethylbenzene] | 13 |

| SMILES | Henry solubility constant Hcp |
| --- | --- |
| Nc1ccccc1[N+](=O)[O-] [2-nitrobenzenamine] | 100 |
| CNc1ccccc1 [(methylamino)-benzene] | 1.1 |
| Cc1cc(O)ccc1Cl [4-chloro-3-methylphenol] | 39 |
| Nc1cccc(Cl)c1 [1-amino-3-chlorobenzene] | 7.5 |
| N#Cc1cccnc1 [3-cyanopyridine] | 36 |
| Nc1ccc(Cl)cc1 [1-amino-4-chlorobenzene] | 8.6 |
| OCc1ccccc1 [(hydroxymethyl)-benzene] | 29 |
| COC(=O)c1ccccc1 [methyl benzoate] | 0.31 |
| O=[N+]([O-])c1ccccc1O [2-nitrophenol] | 0.92 |
| COc1cccc(O)c1 [1-hydroxy-3-methoxybenzene] | 170 |
| COc1ccccc1O [1-hydroxy-2-methoxybenzene] | 5 |
| O=Cc1ccncc1 [4-formylpyridine] | 56 |
| Nc1ccc([N+](=O)[O-])cc1 [4-nitrobenzenamine] | 14000 |
| OCCCc1ccccc1 [3-phenyl-1-propanol] | 48 |
| CC(=O)c1cccnc1 [3-acetylpyridine] | 460 |
| CCOP(=O)(OCC)OCC [triethylphosphate] | 140 |
| CCCc1ccc(O)cc1 [1-hydroxy-4-propylbenzene] | 8.6 |
| OCCc1ccccc1 [2-phenylethanol] | 39 |
| c1ccc2ncccc2c1 [benzo[b]pyridine] | 6.4 |
| Oc1ccccc1F [2-hydroxyfluorobenzene] | 3.1 |
| NC(=O)c1ccccc1 [benzamide] | 47000 |
| Cc1cc(C)cc(O)c1 [1-hydroxy-3,5-dimethylbenzene] | 16 |
